# Tests used:
# M. bovis BCG [1] = type: cell-based, Mycobacterium bovis BCG
# piniBAC promoter = type: cell-based, Mycobacterium bovis BCG; conditions: 0.4-100 μM, 24 h
# Mtb H37Rv = tested on: Mtb H37Rv; parameters: species or system BALB/c mice; conditions: mouse, in vivo
# [2] = lecithin-dodecane lipid layer, 24 h, 25°C
# [3] = for levels in lung: CD-1, mouse, in vivo; for tolerability in PK study: 25 mg/kg PO single dose, mice
# [4] = 100 mg/kg po daily over 4 weeks (24 doses)
# physchem = conditions: pH 7.4
# human red blood cells = assay: Compound-induced hemolysis of human red blood cells; conditions: hemolyze 50% of human RBCs vs 2% Triton X-100
# [5] = Electrophilic reactivity to cysteamine by 1H NMR; type: physicochemical; conditions: DMSO-d6, 1% acetic acid, up to 24 h
# M. bovis BCG [6] = assay: microbe, parasite or virus in culture; type: cell-based; conditions: Mycobacterium tuberculosis variant bovis BCG, read-out: MIC MIC50
# M. bovis BCG [7] = type: cell-based, Mycobacterium bovis BCG; remark: listed apart in the source
smiles,measurement,setting,value
"CCCCCCCCn1cc(CN2CCC3(CC2)OCCO3)c2ccc(OC)cc21 [Compound 1, 8-[(6-methoxy-1-octyl-1H-indolyl-3-yl)methyl]-1,4-dioxa-8-azaspiro[4,5]decane]",kill of mycobacterial cultures by 48 h (time-kill),M. bovis BCG [1],still viable at 48h
same,induction of piniBAC promoter activity,piniBAC promoter,broadly similar to that of isoniazid
same,bacterial loads in lungs and spleen (CFU),Mtb H37Rv,only reduced the splenic bacterial load
same,PAMPA Effective Permeability (Pe),[2],Cannot be determined
same,levels in lung,[3],~ 1 μM
same,adverse effects during treatment period,[4],no adverse effects were detected
same,solubility,physchem,23.9 ± 0.8 µM
same,HC50,human red blood cells,75 µM
CCCCCCCCn1cc(CN2CCC3(CC2)OC[C@H](C)O3)c2ccc(OC)cc21 [Compound 7],HC50,human red blood cells,51 µM
CCCCCCCCn1cc(CN2CCC3(CC2)OC[C@@H](C)O3)c2ccc(OC)cc21 [Compound 8],HC50,human red blood cells,75 µM
CCCCCCCCn1cc(CN2CCC3(CC2)OCCCO3)c2ccc(OC)cc21 [Compound 12],induction of piniBAC promoter activity,piniBAC promoter,increased the transcriptional activity of the piniBAC in a concentration dependent manner
same,electrophilic reactivity to cysteamine,[5],limited electrophilic reactivity
same,bacterial loads in lungs and spleen (CFU),Mtb H37Rv,significantly inhibited bacterial growth in both organs
same,PAMPA Effective Permeability (Pe),[2],Cannot be determined
same,tolerability in PK study,[3],did not cause obvious adverse effects
same,Lung concentration at 5 h,"[3]; 25 mg/kg PO, CD1 mice",1408 ng/g
same,levels in lung,[3],~ 3 μM
same,adverse effects during treatment period,[4],no adverse effects were detected
same,HC50,human red blood cells,64 µM
CCCCCCCCn1cc(CN2CCC3(CC2)OCCCS3)c2ccc(OC)cc21 [Compound 13],induction of piniBAC promoter activity,piniBAC promoter,increased the transcriptional activity of the piniBAC in a concentration dependent manner
same,electrophilic reactivity to cysteamine,[5],limited electrophilic reactivity
same,PAMPA Effective Permeability (Pe),[2],Cannot be determined
same,tolerability in PK study,[3],did not cause obvious adverse effects
same,solubility,physchem,30.9 ± 1.3 µM
CCCCCCCCn1cc(CN2CCC3(CC2)OCCCO3)c2ccc(C#N)cc21 [Compound 57e],MIC50,M. bovis BCG [6],0.5 to 0.7 µM
CCCCCCCCn1cc(CN2CCC3(CC2)OCCCO3)c2ccc(OCCC)cc21 [Compound 57f],MIC50,M. bovis BCG [6],0.5 to 0.7 µM
CCCCCCCCn1cc(CN2CCC3(CC2)OCCCO3)c2ccc(OC(C)C)cc21 [Compound 57g],MIC50,M. bovis BCG [6],0.5 to 0.7 µM
"CCCCCCCCn1cc(CN2CCCCCC2)c2c(F)cccc21 [Compound 71, 3-(azepan-1-ylmethyl)-4-fluoro-1-octyl-1H indole]",membrane potential (DiOC2 red/green ratio),M. bovis BCG [7],no depolarization at these early time points

# Reference: publication PMC6043372 (Journal of medicinal chemistry, 2018)
